Assay results taken from patent US20230087342A1, “AZEPANE DERIVATIVE” (Nippon Chemiphar Co., Ltd., priority 2019, published 2023).

Tests used:
Metabolic stability test = assay type: in vitro ADME; conditions: human liver microsomes, 0 to 30 minutes; a hydrochloride was used
Protocol: To determine the unchanged product-residual ratio of the test compound in the reaction sample, human liver microsomes and the test compound were reacted for a predetermined time (0 to 30 minutes). The unchanged product-residual ratio at a reaction time of 0 hours was considered 100%, the residual ratio after incubation was log-linear plotted with respect to the time, a regression line (y=100 e^−kt, k=slope of the line: elimination rate constant) was determined, and the metabolic clearance CLint (mL/min/kg) was calculated using the following formula.
CLint*=k (−min)×45 (mg MS protein/g liver)×21 (g liver/kg)/MS protein (mg MS protein/mL)
*: Yamazaki S.; Skaptason J.; Romero D, Vekich S.; Jones HM.; Tan W.; Wilner KD.; Koudriakova T. Drug Metab. Dispos. 2011 March; 39 (3): 383-393.

human κ opioid receptors = biological target: T1, human κ opioid receptors (Homo sapiens, UniProt P41145); assay: Opioid receptor function test (Lance Ultra cAMP kit, agonist activity); assay type: cell-based; conditions: CHO cells expressing human κ opioid receptors, 10 μM forskolin, 30 minutes
T1 construct: host or cells: CHO cells
In short: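 CHO cells expressing human κ opioid receptor incubated 30 min with test compound (10^−14 to 10^−7 M) and 10 μM forskolin in HSS/5 mM HEPES pH 7.4 with 0.5 mM IBMX and 0.1% SA. cAMP measured by TR-FRET (Lance Ultra) 1 h after detection reagent addition.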

T1 sequence (P41145 whole entry): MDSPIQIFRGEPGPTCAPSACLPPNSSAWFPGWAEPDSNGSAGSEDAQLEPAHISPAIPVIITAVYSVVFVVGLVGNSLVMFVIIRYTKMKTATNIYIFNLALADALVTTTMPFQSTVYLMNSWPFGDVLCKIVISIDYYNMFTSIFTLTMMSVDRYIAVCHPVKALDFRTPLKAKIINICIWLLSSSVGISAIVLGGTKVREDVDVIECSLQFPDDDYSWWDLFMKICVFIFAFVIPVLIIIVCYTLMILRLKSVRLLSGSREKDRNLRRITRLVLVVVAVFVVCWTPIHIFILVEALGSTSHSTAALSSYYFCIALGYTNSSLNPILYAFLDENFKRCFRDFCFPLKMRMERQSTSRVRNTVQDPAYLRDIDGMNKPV

Row | SMILES | CLint scaled (Metabolic stability test) | EC50 (human κ opioid receptors)
1 | Cc1cnn(CCN2CC[C@]34CCN(CC5CC5)[C@H](Cc5cc(C(N)=O)c(O)cc53)[C@]4(O)CC2)c1 [Example 295, (5aS,6R,11bS)-14-(cyclopropylmethyl)-5a,10-dihydroxy-3-(2-(4-methyl-1H-pyrazol-1-yl)ethyl)-1,2,3,4,5,5a,6,7-octahydro-6,11b-(epiminoethano)naphtho[1,2-d]azepine-9-carboxamide] | 17.2 mL/min/kg | –
2 | Cc1cnn(CCN2CC[C@]34CCN[C@H](Cc5ccc(O)cc53)[C@]4(O)CC2)c1 [Example 176, (5aS,6R,11bR)-3-(2-(4-methyl-1H-pyrazol-1-yl)ethyl)-2,3,4,5,6,7-hexahydro-6,11b-(epiminoethano)naphtho[1,2-d]azepine-5a,10(1H)-diol] | 8.2 mL/min/kg | –
3 | Cc1cnn(CCN2CC[C@]34CCN(CC5CC5)[C@H](Cc5cc(I)c(O)cc53)[C@]4(O)CC2)c1 [Example 298, (5aS,6R,11bS)-14-(cyclopropylmethyl)-9-iodo-3-(2-(4-methyl-1H-pyrazol-1-yl)ethyl)-2,3,4,5,6,7-hexahydro-6,11b-(epiminoethano)naphtho[1,2-d]azepine-5a,10(1H)-diol] | 22.5 mL/min/kg | –
4 | O=C(Cc1ncccn1)N1CC[C@]23CCN(CC4CC4)[C@H](Cc4ccc(O)cc42)[C@]3(O)CC1 [Example 20, 1-((5aS,6R,11bR)-14-(cyclopropylmethyl)-5a,10-dihydroxy-1,2,5,5a,6,7-hexahydro-6,11b-(epiminoethano)naphtho[1,2-d]azepin-3(4H)-yl)-2-(pyrimidin-2-yl)ethan-1-one] | 3.9 mL/min/kg | –
5 | Cc1cc2c(cc1O)[C@@]13CCN(C(=O)Cc4cccc(C(F)(F)F)n4)CC[C@@]1(O)[C@@H](C2)N(CC1CC1)CC3 [Example 322, 1-((5aS,6R,11bR)-14-(cyclopropylmethyl)-5a,10-dihydroxy-9-methyl-1,2,5,5a,6,7-hexahydro-6,11b-(epiminoethano)naphtho[1,2-d]azepin-3(4H)-yl)-2-(6-(trifluoromethyl)pyridin-2-yl)ethan-1-one] | 6.6 mL/min/kg | –
6 | Cc1cnn(CCN2CC[C@]34CCN(CC5CC5)[C@H](Cc5cccc(O)c53)[C@]4(O)CC2)c1 [Example 277, (5aS,6R,11bS)-14-(cyclopropylmethyl)-3-(2-(4-methyl-1H-pyrazol-1-yl)ethyl)-2,3,4,5,6,7-hexahydro-6,11b-(epiminoethano)naphtho[1,2-d]azepine-5a,11(1H)-diol] | 6.4 mL/min/kg | –
7 | O=C(Cc1ccccn1)N1CC[C@]23CCN(CC4CC4)[C@H](Cc4cc(C(F)(F)F)c(O)cc42)[C@]3(O)CC1 [Example 320, 1-((5aS,6R,11bR)-14-(cyclopropylmethyl)-5a,10-dihydroxy-9-(trifluoromethyl)-1,2,5,5a,6,7-hexahydro-6,11b-(epiminoethano)naphtho[1,2-d]azepin-3(4H)-yl)-2-(pyridin-2-yl)ethan-1-one] | 22.9 mL/min/kg | –
8 | NC(=O)c1ccc2c(c1)[C@@]13CCN(C(=O)Cc4ccccn4)CC[C@@]1(O)[C@@H](C2)N(CC1CC1)CC3 [Example 247, (5aS,6R,11bR)-14-(cyclopropylmethyl)-5a-hydroxy-3-(2-(pyridin-2-yl)acetyl)-1,2,3,4,5,5a,6,7-octahydro-6,11b-(epiminoethano)naphtho[1,2-d]azepine-10-carboxamide] | 4.8 mL/min/kg | –
9 | Oc1ccc2c(c1)[C@@]13CCN(CCn4ncc5ccccc54)CC[C@@]1(O)[C@@H](C2)N(CC1CC1)CC3 [Example 122, (5aS,6R,11bS)-3-(2-(1H-indazol-1-yl)ethyl)-14-(cyclopropylmethyl)-2,3,4,5,6,7-hexahydro-6,11b-(epiminoethano)naphtho[1,2-d]azepine-5a,10(1H)-diol] | – | 0.15 nM
10 | Cc1cc(CC(=O)N2CC[C@]34CCN(CC5CC5)[C@H](Cc5ccc(O)cc53)[C@]4(O)CC2)no1 [Example 185, 1-((5aS,6R,11bR)-14-(cyclopropylmethyl)-5a,10-dihydroxy-1,2,5,5a,6,7-hexahydro-6,11b-(epiminoethano)naphtho[1,2-d]azepin-3(4H)-yl)-2-(5-methylisoxazol-3-yl)ethan-1-one] | – | 0.39 nM
11 | Cc1cn(CC(=O)N2CC[C@]34CCN(CC5CC5)[C@H](Cc5ccc(O)cc53)[C@]4(O)CC2)nc1C(F)(F)F [Example 163, 1-((5aS,6R,11bR)-14-(cyclopropylmethyl)-5a,10-dihydroxy-1,2,5,5a,6,7-hexahydro-6,11b-(epiminoethano)naphtho[1,2-d]azepin-3(4H)-yl)-2-(4-methyl-3-(trifluoromethyl)-1H-pyrazol-1-yl)ethan-1-one] | – | 0.076 nM
12 | Oc1ccc2c(c1)[C@@]13CCN(CCc4n[nH]c5ccccc45)CC[C@@]1(O)[C@@H](C2)N(CC1CC1)CC3 [Example 112, (5aS,6R,11bS)-3-(2-(1H-indazol-3-yl)ethyl)-14-(cyclopropylmethyl)-2,3,4,5,6,7-hexahydro-6,11b-(epiminoethano)naphtho[1,2-d]azepine-5a,10(1H)-diol] | – | 0.037 nM
13 | O=C(Cc1cscn1)N1CC[C@]23CCN(CC4CC4)[C@H](Cc4ccc(O)cc42)[C@]3(O)CC1 [Example 33, 1-((5aS,6R,11bR)-14-(cyclopropylmethyl)-5a,10-dihydroxy-1,2,5,5a,6,7-hexahydro-6,11b-(epiminoethano)naphtho[1,2-d]azepin-3(4H)-yl)-2-(thiazol-4-yl)ethan-1-one] | – | 0.92 nM
14 | O=C(CCn1cc(C(F)(F)F)cn1)N1CC[C@]23CCN(CC4CC4)[C@H](Cc4ccc(O)cc42)[C@]3(O)CC1 [Example 169, 1-((5aS,6R,11bR)-14-(cyclopropylmethyl)-5a,10-dihydroxy-1,2,5,5a,6,7-hexahydro-6,11b-(epiminoethano)naphtho[1,2-d]azepin-3(4H)-yl)-3-(4-(trifluoromethyl)-1H-pyrazol-1-yl)propan-1-one] | – | 0.094 nM
15 | Cc1cc(CCC(=O)N2CC[C@]34CCN(CC5CC5)[C@H](Cc5ccc(O)cc53)[C@]4(O)CC2)ns1 [Example 217, 1-((5aS,6R,11bR)-14-(cyclopropylmethyl)-5a,10-dihydroxy-1,2,5,5a,6,7-hexahydro-6,11b-(epiminoethano)naphtho[1,2-d]azepin-3(4H)-yl)-3-(5-methylisothiazol-3-yl)propan-1-one] | – | 0.18 nM
16 | Oc1ccc2c(c1)[C@@]13CCN(CCc4ccccn4)CC[C@@]1(O)[C@@H](C2)N(CC1CCC1)CC3 [Example 162, (5aS,6R,11bS)-14-(cyclobutylmethyl)-3-(2-(pyridin-2-yl)ethyl)-2,3,4,5,6,7-hexahydro-6,11b-(epiminoethano)naphtho[1,2-d]azepine-5a,10(1H)-diol] | – | 0.39 nM
17 | Oc1ccc2c(c1)[C@@]13CCN(CCc4cccc(C(F)(F)F)n4)CC[C@@]1(O)[C@@H](C2)N(CC1CC1)CC3 [Example 88, (5aS,6R,11bS)-14-(cyclopropylmethyl)-3-(2-(6-(trifluoromethyl)pyridin-2-yl)ethyl)-2,3,4,5,6,7-hexahydro-6,11b-(epiminoethano)naphtho[1,2-d]azepine-5a,10(1H)-diol] | – | 0.75 nM
18 | Cc1ccn(CCN2CC[C@]34CCN(CC5CC5)[C@H](Cc5ccc(O)cc53)[C@]4(O)CC2)n1 [Example 47, (5aS,6R,11bS)-14-(cyclopropylmethyl)-3-(2-(3-methyl-1H-pyrazol-1-yl)ethyl)-2,3,4,5,6,7-hexahydro-6,11b-(epiminoethano)naphtho[1,2-d]azepine-5a,10(1H)-diol] | – | 0.23 nM
19 | Cc1cnn(CCN2CC[C@]34CCN(CC5(C)CC5)[C@H](Cc5ccc(O)cc53)[C@]4(O)CC2)c1 [Example 221, (5aS,6R,11bS)-3-(2-(4-methyl-1H-pyrazol-1-yl)ethyl)-14-((1-methylcyclopropyl)methyl)-2,3,4,5,6,7-hexahydro-6,11b-(epiminoethano)naphtho[1,2-d]azepine-5a,10(1H)-diol] | – | 0.034 nM
20 | Oc1ccc2c(c1)[C@]13CCN(CC4CC4)[C@H](C2)[C@]1(O)CCCN(CCc1ccccn1)C3 [Example 137, (5aS,6R,11bS)-14-(cyclopropylmethyl)-2-(2-(pyridin-2-yl)ethyl)-2,3,4,5,6,7-hexahydro-6,11b-(epiminoethano)naphtho[1,2-c]azepine-5a,10(1H)-diol] | – | 0.14 nM
21 | Cc1cc2c(cc1O)[C@@]13CCN(C(=O)Cc4cc(C(F)(F)F)ccn4)CC[C@@]1(O)[C@@H](C2)N(CC1CC1)CC3 [Example 355, 1-((5aS,6R,11bR)-14-(cyclopropylmethyl)-5a,10-dihydroxy-9-methyl-1,2,5,5a,6,7-hexahydro-6,11b-(epiminoethano)naphtho[1,2-d]azepin-3(4H)-yl)-2-(4-(trifluoromethyl)pyridin-2-yl)ethan-1-one] | – | 0.11 nM
22 | Oc1ccc2c(c1)[C@@]13CCN(CCc4cc5ccccn5n4)CC[C@@]1(O)[C@@H](C2)N(CC1CC1)CC3 [Example 118, (5aS,6R,11bS)-14-(cyclopropylmethyl)-3-(2-(pyrazolo[1,5-a]pyridin-2-yl)ethyl)-2,3,4,5,6,7-hexahydro-6,11b-(epiminoethano)naphtho[1,2-d]azepine-5a,10(1H)-diol] | – | 0.016 nM
23 | CC(C)c1cnn(CCN2CC[C@]34CCN(CC5CC5)[C@H](Cc5ccc(O)cc53)[C@]4(O)CC2)c1 [Example 195, (5aS,6R,11bS)-14-(cyclopropylmethyl)-3-(2-(4-isopropyl-1H-pyrazol-1-yl)ethyl)-2,3,4,5,6,7-hexahydro-6,11b-(epiminoethano)naphtho[1,2-d]azepine-5a,10(1H)-diol] | – | 0.023 nM
